Measurements: ChEMBL document CHEMBL5303573, “Mapping human microbiome drug metabolism by gut bacteria and their genes” (Nature, 2019)

Tests used:
[1] = The drug is tested on Bifidobacterium ruminantium strain: fecal isolate for biotransformation. The drug concentrations were measured before and after a 12-h incubation by liquid-chromatography-coupled mass spectrometry (LC–MS); details: 2 µM
[2] = The drug is tested on Bacteroides xylanisolvens strain: DSM18836 for biotransformation. The drug concentrations were measured before and after a 12-h incubation by liquid-chromatography-coupled mass spectrometry (LC–MS); details: 2 µM
[3] = The drug is tested on Clostridium ramosum strain: DSM1402 for biotransformation. The drug concentrations were measured before and after a 12-h incubation by liquid-chromatography-coupled mass spectrometry (LC–MS); details: thomasclavelia ramosa, 2 µM
[4] = The drug is tested on Eubacterium rectale strain: ATCC33656 for biotransformation. The drug concentrations were measured before and after a 12-h incubation by liquid-chromatography-coupled mass spectrometry (LC–MS); details: agathobacter rectalis, 2 µM
[5] = The drug is tested on Enterobacter cancerogenus strain: ATCC35316 for biotransformation. The drug concentrations were measured before and after a 12-h incubation by liquid-chromatography-coupled mass spectrometry (LC–MS); details: 2 µM
[6] = bacteroides fragilis, 12 h, 2 µM
Description: The drug is tested on Bacteroides fragilis strain: DS-208 for biotransformation. The drug concentrations were measured before and after a 12-h incubation by liquid-chromatography-coupled mass spectrometry (LC–MS)

[7] = parabacteroides johnsonii, 12 h, 2 µM
Description: The drug is tested on Parabacteroides johnsonii strain: DSM18315 for biotransformation. The drug concentrations were measured before and after a 12-h incubation by liquid-chromatography-coupled mass spectrometry (LC–MS)

Row | Compound | Bacterial Biotransformation [1] | Bacterial Biotransformation [2] | Bacterial Biotransformation [3] | Bacterial Biotransformation [4] | Bacterial Biotransformation [5] | Bacterial Biotransformation [6] | Bacterial Biotransformation [7]
1 | CSc1ccc2c(c1)C(N1CCN(C)CC1)Cc1ccccc1S2.O=C(O)/C=C\C(=O)O (stereo not given) | Compound NOT metabolized | Compound NOT metabolized | Compound NOT metabolized | Compound NOT metabolized | Compound NOT metabolized | Compound NOT metabolized | Compound metabolized
2 | N[C@@H](Cc1ccc(N(CCCl)CCCl)cc1)C(=O)O | Compound metabolized | Compound metabolized | Compound metabolized | Compound metabolized | Compound metabolized | Compound metabolized | Compound metabolized
3 | NC12CC3CC(CC(C3)C1)C2 [AMANTADINE] | Compound metabolized | – | Compound NOT metabolized | Compound NOT metabolized | Compound NOT metabolized | Compound metabolized | Compound NOT metabolized
4 | CCN1CCCC1CNC(=O)c1cc(S(=O)(=O)CC)c(N)cc1OC (stereo not given) [AMISULPRIDE] | Compound NOT metabolized | Compound NOT metabolized | Compound NOT metabolized | Compound NOT metabolized | Compound NOT metabolized | Compound NOT metabolized | Compound NOT metabolized
5 | CC(C)(C#N)c1cc(Cn2cncn2)cc(C(C)(C)C#N)c1 [ANASTROZOLE] | Compound metabolized | Compound metabolized | Compound NOT metabolized | Compound NOT metabolized | Compound NOT metabolized | Compound NOT metabolized | Compound metabolized
6 | CN1CCc2cccc3c2[C@H]1Cc1ccc(O)c(O)c1-3 [APOMORPHINE] | Compound NOT metabolized | Compound NOT metabolized | Compound NOT metabolized | Compound NOT metabolized | Compound NOT metabolized | Compound NOT metabolized | Compound NOT metabolized
7 | CN1CCC(=C2c3ccccc3CCc3cccnc32)CC1.O=C(O)/C=C\C(=O)O.O=C(O)/C=C\C(=O)O [AZATADINE MALEATE] | Compound NOT metabolized | – | Compound NOT metabolized | Compound NOT metabolized | Compound NOT metabolized | Compound NOT metabolized | Compound NOT metabolized
8 | CCOC(=O)[C@H](CCc1ccccc1)N[C@H]1CCc2ccccc2N(CC(=O)O)C1=O [BENAZEPRIL] | Compound NOT metabolized | Compound metabolized | Compound NOT metabolized | Compound NOT metabolized | Compound NOT metabolized | Compound metabolized | Compound metabolized
9 | CCc1oc2ccccc2c1C(=O)c1cc(Br)c(O)c(Br)c1 [BENZBROMARONE] | Compound NOT metabolized | Compound NOT metabolized | Compound NOT metabolized | Compound NOT metabolized | Compound NOT metabolized | Compound NOT metabolized | Compound NOT metabolized
10 | OC(CCN1CCCCC1)(c1ccccc1)C1CC2C=CC1C2 (stereo not given) [BIPERIDEN] | Compound NOT metabolized | – | Compound NOT metabolized | Compound NOT metabolized | Compound NOT metabolized | Compound NOT metabolized | –
11 | CC(C)C[C@H]1C(=O)N2CCC[C@H]2[C@]2(O)O[C@](NC(=O)[C@@H]3C=C4c5cccc6[nH]c(Br)c(c56)C[C@H]4N(C)C3)(C(C)C)C(=O)N12.CS(=O)(=O)O [BROMOCRIPTINE MESYLATE] | Compound metabolized | Compound metabolized | Compound metabolized | Compound metabolized | Compound metabolized | Compound metabolized | Compound metabolized
12 | CCN(CC)CCOCCOC(=O)C1(c2ccccc2)CCCC1.O=C(O)CC(O)(CC(=O)O)C(=O)O [CARBETAPENTANE CITRATE] | Compound metabolized | Compound metabolized | Compound metabolized | Compound NOT metabolized | Compound metabolized | Compound metabolized | Compound metabolized
13 | CCCC(C)(COC(N)=O)COC(=O)NC(C)C (stereo not given) [CARISOPRODOL] | Compound NOT metabolized | Compound metabolized | Compound NOT metabolized | Compound NOT metabolized | Compound NOT metabolized | Compound metabolized | –
14 | Clc1ccc(Cn2c(CN3CCCC3)nc3ccccc32)cc1 [CLEMIZOLE] | Compound NOT metabolized | Compound NOT metabolized | Compound NOT metabolized | Compound NOT metabolized | Compound NOT metabolized | Compound NOT metabolized | Compound NOT metabolized
15 | CCOc1ccc2nc(S(N)(=O)=O)sc2c1 [ETHOXZOLAMIDE] | Compound metabolized | Compound metabolized | Compound metabolized | Compound metabolized | Compound metabolized | Compound NOT metabolized | Compound metabolized
16 | CNCCC(Oc1ccc(C(F)(F)F)cc1)c1ccccc1 (stereo not given) [FLUOXETINE] | Compound metabolized | Compound metabolized | Compound metabolized | Compound metabolized | Compound metabolized | Compound metabolized | Compound metabolized
17 | CC(Oc1c(Cl)cccc1Cl)C1=NCCN1 (stereo not given) [LOFEXIDINE] | Compound metabolized | Compound NOT metabolized | Compound metabolized | Compound metabolized | Compound metabolized | Compound NOT metabolized | Compound metabolized
18 | CC[C@H](C)C(=O)O[C@H]1C[C@@H](C)C=C2C=C[C@H](C)[C@H](CC[C@@H]3C[C@@H](O)CC(=O)O3)[C@H]21 [LOVASTATIN] | Compound NOT metabolized | Compound NOT metabolized | Compound NOT metabolized | Compound NOT metabolized | Compound metabolized | – | Compound metabolized
19 | CC[C@@H](CO)NC(=O)[C@@H]1C=C2c3cccc4c3c(cn4C)C[C@H]2N(C)C1.O=C(O)/C=C\C(=O)O [METHYSERGIDE MALEATE] | Compound metabolized | Compound metabolized | Compound metabolized | Compound metabolized | Compound metabolized | Compound metabolized | Compound metabolized
20 | CC[C@H](C)C(=O)O[C@H]1CCC=C2C=C[C@H](C)[C@H](CC[C@@H]3C[C@@H](O)CC(=O)O3)[C@H]21 [MEVASTATIN] | Compound metabolized | Compound metabolized | Compound metabolized | Compound metabolized | Compound metabolized | Compound metabolized | Compound metabolized
21 | COc1c(C)c2c(c(O)c1C/C=C(\C)CCC(=O)OCCN1CCOCC1)C(=O)OC2 [MYCOPHENOLATE MOFETIL] | Compound metabolized | Compound metabolized | Compound metabolized | Compound metabolized | Compound metabolized | Compound metabolized | Compound metabolized
22 | CNC(=C[N+](=O)[O-])NCCSCc1csc(CN(C)C)n1 [NIZATIDINE] | Compound metabolized | Compound metabolized | Compound metabolized | Compound metabolized | Compound metabolized | Compound metabolized | Compound metabolized
23 | CC(C(=O)O)c1ccc2c(c1)Cc1cccnc1O2 (stereo not given) [PRANOPROFEN] | Compound metabolized | Compound metabolized | Compound metabolized | – | Compound NOT metabolized | Compound metabolized | Compound metabolized
24 | CCOC(=O)[C@H](CCc1ccccc1)N[C@@H](C)C(=O)N1[C@H](C(=O)O)C[C@H]2CCCC[C@@H]21 [TRANDOLAPRIL] | Compound metabolized | Compound metabolized | Compound NOT metabolized | Compound NOT metabolized | Compound NOT metabolized | Compound metabolized | –
